Reference: US20210161135A1, “WEED CONTROL FROM APPLICATIONS OF PYRIDINE CARBOXYLIC ACID HERBICIDES AND 4-HYDROXYPHENYL-PYRUVATE DIOXYGENASE (HPPD) INHIBITORS” (Dow AgroSciences LLC, priority 2018, published 2021)

Assays:
Assay in all cases: Postemergence herbicidal activity, greenhouse, visual injury after 20-22 d
Format in all cases: in vivo
[1] = system: common lambsquarters (Chenopodium album L., CHEAL)
Protocol: (§1) Seeds of the desired test plant species were planted in Sun Gro MetroMix® 306 planting mixture, which typically has a pH of 6.0 to 6.8 and an organic matter content of about 30 percent, in plastic pots with a surface area of 103.2 square centimeters (cm^2). When required to ensure good germination and healthy plants, a fungicide treatment and/or other chemical or physical treatment was applied. The plants were grown for 7-36 days (d) in a greenhouse with an approximate 14-hour (h) photoperiod which was maintained at about 23° C. during the day and 22° C. during the night. Nutrients and water were added on a regular basis and supplemental lighting was provided with overhead metal halide 1000-Watt lamps as necessary. The plants were employed for testing when they reached the second or third true leaf stage.
(§2) An emulsifiable concentrate (EC) formulation containing Compound 1 at 100 gai/L was prepared by combining Compound 1 with 1-butyl-2-pyrrolidinone (Tamisolve NxG; 360.5 g/L), benzyl acetate (544.6 g/L) and Agnique MBL 520L surfactant (52.9 g/L). […] The concentrated stock solutions were diluted with an aqueous mixture of 1.5% v/v of Agri-dex crop oil concentrate to provide the appropriate application rates. Compound requirements are based upon a 12 milliliter (mL) application volume at a rate of 187 liters per hectare (L/ha). Spray solutions of the experimental compound mixtures were prepared by adding the stock solutions to the appropriate amount of dilution solution to form a 12 mL spray solution in two-way combinations. Formulated compounds were applied to the plant material with an overhead Mandel track sprayer equipped with 8002E nozzles calibrated to deliver 187 L/ha over an application area of 0.503 square meters (m^2) at a spray height of […] above average plant canopy. Control plants were sprayed in the same manner with the solvent blank. Application rates for component (a) are in g ai/ha, and application rates for component (b) are in g ai/ha.
(§3) The treated plants and control plants were placed in a greenhouse as described above and watered by sub-irrigation to prevent wash-off of the test compounds. After 20-22 d, the condition of the test plants as compared with that of the control plants was determined visually and scored on a scale of 0 to 100 percent where 0 corresponds to no injury and 100 corresponds to complete kill. […] The Colby method was used to determine the herbicidal effects expected from the mixtures.

[2] = system: thistle (Cirsium arvense CIRAR)
Protocol: as §1, §2, §3

[3] = system: poinsettia (Euphorbia heterophylla, EPHHL)
Protocol: as §1, §2, §3

[4] = system: wild pansy (Viola tricolor, VIOTR)
Protocol: as §1, §2, §3

[5] = system: wild buckwheat (Polygonum convolvulus, POLCO)
Protocol: as §1, §2, §3

[6] = system: spring rape (Brassica napus, BRSNN)
Protocol: as §1, §2, §3

[7] = system: kochia (Kochia scoparia, KCHSC)
Protocol: as §1, §2, §3

[8] = system: giant foxtail (Setaria faberi, SETFA)
Protocol: as §1, §2, §3

[9] = system: velvetleaf (Abutilon theophrasti, ABUTH)
Protocol: as §1, §2, §3

[10] = system: soybean (Glycine max, GLXMA); details: two trials
Protocol: as §1, §2, §3

[11] = system: rice (Oryza sativa, ORYSA); details: two trials
Protocol: as §1, §2, §3

[12] = system: wild oat (Avena fatua, AVEFA); details: two trials
Protocol: as §1, §2, §3

[13] = system: pigweed (Amaranthus retroflexus, AMARE); details: two trials
Protocol: as §1, §2, §3

[14] = system: grain sorghum (Sorghum vulgare, SORVU); details: two trials
Protocol: as §1, §2, §3

[15] = system: winter rape (Brassica napus, BRSNW); details: two trials
Protocol: as §1, §2, §3

[16] = system: large crabgrass (Digitaria sanguinalis, DIGSA); details: two trials
Protocol: as §1, §2, §3

[17] = system: ivyleaf morningglory (Ipomoea hederacea, IPOHE); details: two trials
Protocol: as §1, §2, §3

maize (Zea mays, ZEAMX) = details: two trials
Protocol: as §1, §2, §3

[18] = system: common chickweed (Stellaria media, STEME); details: two trials
Protocol: as §1, §2, §3

[19] = system: sunflower (Helianthus annuus, HELAN); details: two trials
Protocol: as §1, §2, §3

[20] = system: barnyardgrass (Echinochloa crus-galli, ECHCG); details: two trials
Protocol: as §1, §2, §3

[21] = system: winter wheat (Triticum aestivum, TRZAW); details: two trials
Protocol: as §1, §2, §3

[22] = Compound 1 5 g ai/ha alone, Tables 4-5
[23] = Compound 1 5 g ai/ha alone, two trials
[24] = Compound 1 10 g ai/ha alone, Tables 4-5
[25] = Compound 1 10 g ai/ha alone, two trials
[26] = HPPD inhibitor 35 g ai/ha alone
[27] = HPPD inhibitor 35 g ai/ha alone, two trials

In the case of `CS(=O)(=O)c1ccc(C(=O)C2=C(Sc3ccccc3)C3CCC(C3)C2=O)c(Cl)c1` (stereo not drawn) [Benzobicyclon, 3-[2-chloro-4-(methylsulfonyl)benzoyl]-4-(phenylthio)bicyclo[3.2.1]oct-3-en-2-one], the “Effect (% visual injury), Obs” value ([1]; Benzobicyclon 50 g ai/ha alone) is reported as 100%, the “Effect (% visual injury), Obs” value ([2]; Benzobicyclon 50 g ai/ha alone) is reported as 20% and the “Effect (% visual injury), Obs” value ([3]; Benzobicyclon 50 g ai/ha alone) is reported as 5%. For the same molecule, the “Effect (% visual injury), Obs” value ([4]; Benzobicyclon 50 g ai/ha alone) was 10%, the “Effect (% visual injury), Obs” value ([5]; Benzobicyclon 50 g ai/ha alone) was 0% and the “Effect (% visual injury), Obs” value ([6]; Benzobicyclon 50 g ai/ha alone) was 0%. The “Effect (% visual injury), Obs” value ([7]; Benzobicyclon 50 g ai/ha alone) was 10%, the “Effect (% visual injury), Obs” value ([8]; Benzobicyclon 50 g ai/ha alone) was 0% and the “Effect (% visual injury), Obs” value ([9]; Benzobicyclon 50 g ai/ha alone) was 25%.
In the case of `Nc1c(F)c(-c2ccc3cc[nH]c3c2F)nc(C(=O)O)c1Cl` [Compound 1], the “Effect (% visual injury), Obs” value ([10]; Compound 1 5 g ai/ha alone) is reported as 95%, the “Effect (% visual injury), Obs” value ([10]; Compound 1 10 g ai/ha alone) is reported as 100% and the “Effect (% visual injury), Obs” value [1, 22] is reported as 90%. For the same molecule, the “Effect (% visual injury), Obs” value [1, 23] was 90%, the “Effect (% visual injury), Obs” value [1, 24] was 95% and the “Effect (% visual injury), Obs” value [1, 25] was 98%. The “Effect (% visual injury), Obs” value ([11]; Compound 1 5 g ai/ha alone) was 0%, the “Effect (% visual injury), Obs” value ([11]; Compound 1 10 g ai/ha alone) was 10% and the “Effect (% visual injury), Obs” value ([12]; Compound 1 5 g ai/ha alone) was 0%. The “Effect (% visual injury), Obs” value ([12]; Compound 1 10 g ai/ha alone) was 0%, the “Effect (% visual injury), Obs” value ([13]; Compound 1 5 g ai/ha alone) was 75% and the “Effect (% visual injury), Obs” value ([13]; Compound 1 10 g ai/ha alone) was 97%. For the same molecule, the “Effect (% visual injury), Obs” value [2, 22] was 50%, the “Effect (% visual injury), Obs” value [2, 23] was 50% and the “Effect (% visual injury), Obs” value [2, 24] was 60%. The “Effect (% visual injury), Obs” value [2, 25] was 60%, the “Effect (% visual injury), Obs” value ([14]; Compound 1 5 g ai/ha alone) was 0% and the “Effect (% visual injury), Obs” value ([14]; Compound 1 10 g ai/ha alone) was 50%. For the same molecule, the “Effect (% visual injury), Obs” value [3, 22] was 75%, the “Effect (% visual injury), Obs” value [3, 23] was 86% and the “Effect (% visual injury), Obs” value [3, 24] was 100%. The “Effect (% visual injury), Obs” value [3, 25] was 99%, the “Effect (% visual injury), Obs” value ([15]; Compound 1 5 g ai/ha alone) was 40% and the “Effect (% visual injury), Obs” value ([15]; Compound 1 10 g ai/ha alone) was 45%. The “Effect (% visual injury), Obs” value ([16]; Compound 1 5 g ai/ha alone) was 0%, the “Effect (% visual injury), Obs” value ([16]; Compound 1 10 g ai/ha alone) was 10% and the “Effect (% visual injury), Obs” value [4, 22] was 10%. For the same molecule, the “Effect (% visual injury), Obs” value [4, 23] was 8%, the “Effect (% visual injury), Obs” value [4, 24] was 15% and the “Effect (% visual injury), Obs” value [4, 25] was 13%. For the same molecule, the “Effect (% visual injury), Obs” value ([17]; Compound 1 5 g ai/ha alone) was 10%, the “Effect (% visual injury), Obs” value ([17]; Compound 1 10 g ai/ha alone) was 10% and the “Effect (% visual injury), Obs” value (maize (Zea mays, ZEAMX); Compound 1 5 g ai/ha alone) was 0%. The “Effect (% visual injury), Obs” value (maize (Zea mays, ZEAMX); Compound 1 10 g ai/ha alone) was 0%, the “Effect (% visual injury), Obs” value ([18]; Compound 1 5 g ai/ha alone) was 70% and the “Effect (% visual injury), Obs” value ([18]; Compound 1 10 g ai/ha alone) was 70%. The “Effect (% visual injury), Obs” value ([19]; Compound 1 5 g ai/ha alone) was 90%, the “Effect (% visual injury), Obs” value ([19]; Compound 1 10 g ai/ha alone) was 90% and the “Effect (% visual injury), Obs” value [5, 22] was 40%. The “Effect (% visual injury), Obs” value [5, 23] was 53%, the “Effect (% visual injury), Obs” value [5, 24] was 40% and the “Effect (% visual injury), Obs” value [5, 25] was 58%. For the same molecule, the “Effect (% visual injury), Obs” value ([20]; Compound 1 5 g ai/ha alone) was 20%, the “Effect (% visual injury), Obs” value ([20]; Compound 1 10 g ai/ha alone) was 60% and the “Effect (% visual injury), Obs” value [6, 22] was 50%. The “Effect (% visual injury), Obs” value [6, 23] was 50%, the “Effect (% visual injury), Obs” value [6, 24] was 80% and the “Effect (% visual injury), Obs” value [6, 25] was 80%. For the same molecule, the “Effect (% visual injury), Obs” value [7, 22] was 65%, the “Effect (% visual injury), Obs” value [7, 23] was 63% and the “Effect (% visual injury), Obs” value [7, 24] was 75%. The “Effect (% visual injury), Obs” value [7, 25] was 68%, the “Effect (% visual injury), Obs” value [8, 22] was 50% and the “Effect (% visual injury), Obs” value [8, 23] was 30%. The “Effect (% visual injury), Obs” value [8, 24] was 75%, the “Effect (% visual injury), Obs” value [8, 25] was 63% and the “Effect (% visual injury), Obs” value ([21]; Compound 1 5 g ai/ha alone) was 0%. The “Effect (% visual injury), Obs” value ([21]; Compound 1 10 g ai/ha alone) was 0%, the “Effect (% visual injury), Obs” value [9, 22] was 50% and the “Effect (% visual injury), Obs” value [9, 23] was 50%. For the same molecule, the “Effect (% visual injury), Obs” value [9, 24] was 50% and the “Effect (% visual injury), Obs” value [9, 25] was 55%.
For `CS(=O)(=O)c1cc(C(F)(F)F)ccc1C(=O)c1cnoc1C1CC1` [Isoxaflutole, (5-cyclopropyl-4-isoxazolyl)[2-(methylsulfonyl)-4-(trifluoromethyl)phenyl]methanone], the “Effect (% visual injury), Obs” value [10, 26] was 75%, the “Effect (% visual injury), Obs” value [1, 27] was 99% and the “Effect (% visual injury), Obs” value [11, 26] was 30%. For the same molecule, the “Effect (% visual injury), Obs” value [12, 26] was 60%, the “Effect (% visual injury), Obs” value [13, 26] was 95% and the “Effect (% visual injury), Obs” value [2, 27] was 75%. The “Effect (% visual injury), Obs” value [14, 26] was 0%, the “Effect (% visual injury), Obs” value [3, 27] was 43% and the “Effect (% visual injury), Obs” value [15, 26] was 60%. For the same molecule, the “Effect (% visual injury), Obs” value [16, 26] was 50%, the “Effect (% visual injury), Obs” value [4, 27] was 45% and the “Effect (% visual injury), Obs” value [17, 26] was 70%. For the same molecule, the “Effect (% visual injury), Obs” value (maize (Zea mays, ZEAMX); [26]) was 0%, the “Effect (% visual injury), Obs” value [18, 26] was 10% and the “Effect (% visual injury), Obs” value [19, 26] was 90%. The “Effect (% visual injury), Obs” value [5, 27] was 10%, the “Effect (% visual injury), Obs” value [20, 26] was 25% and the “Effect (% visual injury), Obs” value [6, 27] was 85%. The “Effect (% visual injury), Obs” value [7, 27] was 90%, the “Effect (% visual injury), Obs” value [8, 27] was 97% and the “Effect (% visual injury), Obs” value [21, 26] was 15%. The “Effect (% visual injury), Obs” value [9, 27] was 45%.
